# Assay results taken from EP4644383A1 (Jiangsu Yahong Meditech Co., Ltd., priority 2022, dated 2024).
# Like-named read-outs stand apart in the source and are kept apart here.
# Legend:
# Type in all cases: biochemical
# [1] = biological target: T1, FGFR4 (Homo sapiens, UniProt P22455); assay: FGFR4 kinase activity inhibition assay (LanthaScreen TR-FRET)
# T1 construct: FGFR4's cytoplasmic domain [460-802 (terminal) amino acids]; purchased Carna 08-136
# Procedure, shortened: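 GST-tagged cytoplasmic domains (FGFR2 aa 399-821; FGFR4 aa 460-802) were preincubated 10 min at 23 °C with compound (top 1 µM, threefold dilutions). Then 28 nM fluorescein-poly GT and 28 µM ATP were added for 30 min at 23 °C in HEPES pH 7.5 buffer. Tb-PY20 TR-FRET 520/495 ratio gave % inhibition versus DMSO and no-enzyme controls.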
# [2] = biological target: T2, FGFR1 (Homo sapiens, UniProt P11362); assay: FGFR1 kinase activity inhibition assay (LanthaScreen TR-FRET)
# T2 construct: cytoplasmic domain [398-822 (terminal) amino acids]; purchased Carna 08-133
# Procedure, shortened: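 Emission ratio 520 nm/495 nm by TR-FRET after stopping reaction with 10 mM EDTA and 60 min incubation at 22°C. Inhibition normalized between no-enzyme (min) and DMSO (max) controls, then fitted to a four-parameter curve (Top, Bottom, HillSlope).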
# [3] = biological target: T3, FGFR3 (Homo sapiens, UniProt P22607); assay: FGFR3 kinase activity inhibition assay (LanthaScreen TR-FRET); conditions: for Selectivity (X) FGFR1/FGFR3: ratio of IC50 FGFR1/FGFR3, selectivity towards FGFR3; for Selectivity (X) FGFR2/FGFR3: ratio of IC50 FGFR2/FGFR3, selectivity towards FGFR3; for Selectivity (X) FGFR4/FGFR3: ratio of IC50 FGFR4/FGFR3, selectivity towards FGFR3
# T3 construct: FGFR3's cytoplasmic domain [436-806 (terminal) amino acids]; purchased Carna 08-135
# Procedure, shortened: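 Read-out is TR-FRET, with the 520 nm/495 nm emission ratio normalised to DMSO (max) and enzyme-free (min) controls. Enzyme was the FGFR3 cytoplasmic domain, residues 436-806. EDTA (10 mM) stopped the reaction, followed by 60 min at 22 °C before reading.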
# [4] = biological target: T4, FGFR2 (Homo sapiens, UniProt P21802); assay: FGFR2 kinase activity inhibition assay (LanthaScreen TR-FRET)
# T4 construct: FGFR2's cytoplasmic domain [399-821 (terminal) amino acids]; purchased Carna 08-134
# Procedure, shortened: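 GST-fused FGFR2 cytoplasmic domain (aa 399-821) was run as in the FGFR1 protocol: preincubated 10 min at 23 °C with compound (3-fold series from 1 µM) in 50 mM HEPES pH 7.5, 10 mM MgCl2, 4 mM DTT, 1% DMSO. A 2× mix of 28 nM fluorescein-poly GT/28 µM ATP then reacted 30 min. Tb-PY20/EDTA quench preceded the TR-FRET 520/495 read.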
# [5] = FGFR4 kinase, TR-FRET, read-out: IC50 (nM) FGFR4
# [6] = FGFR1 kinase, TR-FRET, read-out: IC50 (nM) FGFR1
# [7] = FGFR3 kinase, TR-FRET, read-out: IC50 (nM) FGFR3
# [8] = FGFR2 kinase, TR-FRET, read-out: IC50 (nM) FGFR2
# T4 sequence (P21802 399-821): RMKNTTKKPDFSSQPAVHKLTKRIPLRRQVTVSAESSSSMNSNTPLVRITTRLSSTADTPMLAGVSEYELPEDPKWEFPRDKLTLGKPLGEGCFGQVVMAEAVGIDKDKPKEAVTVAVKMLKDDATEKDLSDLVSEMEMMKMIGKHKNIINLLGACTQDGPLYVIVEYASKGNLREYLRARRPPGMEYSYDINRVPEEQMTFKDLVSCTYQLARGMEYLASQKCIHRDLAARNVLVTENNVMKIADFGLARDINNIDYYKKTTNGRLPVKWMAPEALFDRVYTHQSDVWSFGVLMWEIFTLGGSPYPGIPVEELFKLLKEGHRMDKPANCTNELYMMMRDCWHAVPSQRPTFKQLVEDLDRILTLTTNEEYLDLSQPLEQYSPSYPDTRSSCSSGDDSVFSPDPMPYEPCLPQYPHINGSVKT
# T1 sequence (P22455 460-802): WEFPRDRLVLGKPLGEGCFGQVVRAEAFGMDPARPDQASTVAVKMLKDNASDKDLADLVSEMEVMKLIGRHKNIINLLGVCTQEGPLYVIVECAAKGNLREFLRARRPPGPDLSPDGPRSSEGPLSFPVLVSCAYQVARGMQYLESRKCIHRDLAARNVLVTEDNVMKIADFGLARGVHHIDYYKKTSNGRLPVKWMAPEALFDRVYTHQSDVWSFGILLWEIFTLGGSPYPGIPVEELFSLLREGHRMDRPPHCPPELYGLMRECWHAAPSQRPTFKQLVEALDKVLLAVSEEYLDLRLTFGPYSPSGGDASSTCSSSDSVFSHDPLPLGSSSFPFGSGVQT
# T3 sequence (P22607 436-806): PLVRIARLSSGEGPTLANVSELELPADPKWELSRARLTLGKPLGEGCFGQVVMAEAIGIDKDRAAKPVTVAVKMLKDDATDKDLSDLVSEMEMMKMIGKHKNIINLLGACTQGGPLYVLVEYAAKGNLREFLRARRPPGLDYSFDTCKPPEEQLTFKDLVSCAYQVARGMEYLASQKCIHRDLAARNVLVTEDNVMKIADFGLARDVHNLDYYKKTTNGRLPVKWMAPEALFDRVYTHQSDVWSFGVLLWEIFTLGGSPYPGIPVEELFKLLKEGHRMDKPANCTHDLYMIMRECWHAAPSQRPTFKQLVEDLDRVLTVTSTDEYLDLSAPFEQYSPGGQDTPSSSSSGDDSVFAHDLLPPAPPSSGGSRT
# T2 sequence (P11362 398-822): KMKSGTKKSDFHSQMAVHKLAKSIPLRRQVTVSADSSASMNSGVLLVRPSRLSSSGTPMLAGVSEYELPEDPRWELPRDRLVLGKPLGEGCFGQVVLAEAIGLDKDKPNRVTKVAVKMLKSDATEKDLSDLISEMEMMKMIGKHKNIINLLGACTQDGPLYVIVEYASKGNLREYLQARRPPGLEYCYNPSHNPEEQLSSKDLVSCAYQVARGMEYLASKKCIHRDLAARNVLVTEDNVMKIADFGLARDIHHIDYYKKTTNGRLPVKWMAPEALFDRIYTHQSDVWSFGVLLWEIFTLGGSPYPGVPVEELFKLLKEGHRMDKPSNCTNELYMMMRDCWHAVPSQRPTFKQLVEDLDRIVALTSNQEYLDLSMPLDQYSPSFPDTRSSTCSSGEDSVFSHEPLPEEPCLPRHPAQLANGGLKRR
"IC50 [1, 5] [nM]","IC50 [2, 6] [nM]","IC50 [3, 7] [nM]",Selectivity (X) FGFR1/FGFR3 [3],Selectivity (X) FGFR2/FGFR3 [3],Selectivity (X) FGFR4/FGFR3 [3],"IC50 [4, 8] [nM]",SMILES,IC50 [1] [nM],IC50 [2] [nM],IC50 [3] [nM],IC50 [4] [nM]
10 to 100,10 to 100,1 to 10,B (B represents 20 ≤ multiple X<50),A (A represents 1 ≤ multiple X<20),B (B represents 20 ≤ multiple X<50),10 to 100,"Cc1c(F)cc2ncccc2c1C(C)Oc1ccc2[nH]nc(-c3cnn(C)c3)c2c1 (stereo not drawn) [Example 161, 7-fluoro-6-methyl-5-(1-((3-(1-methyl-1H-pyrazol-4-yl)-1H-indazol-5-yl)oxy)ethyl)quinoline]",,,,
10 to 100,1 to 10,< 1,A (A represents 1 ≤ multiple X<20),A (A represents 1 ≤ multiple X<20),C (C represents 50 ≤ multiple X<100),1 to 10,"CC(Oc1ccc2[nH]nc(-c3cnn(C4CC(N(C)C)C4)c3)c2c1)c1cccc2nccnc12 (stereo not drawn) [Example 170, N,N-dimethyl-3-(4-(5-(1-(quinoxalin-5-yl)ethoxy)-1H-indazol-3-yl)-1H-pyrazol-1-yl)cyclobutan-1-amine]",,,,
10 to 100,10 to 100,< 1,B (B represents 20 ≤ multiple X<50),A (A represents 1 ≤ multiple X<20),B (B represents 20 ≤ multiple X<50),1 to 10,"Cc1cc(C(C)Oc2ccc3[nH]nc(-c4cnn(C)c4)c3c2)c2ccnn2c1 (stereo not drawn) [Example 171, 3-(1-methyl-1H-pyrazol-4-yl)-5-(1-(6-methylpyrazolo [1,5-a]pyridin-4-yl)ethoxy)-1H-indazole]",,,,
10 to 100,1 to 10,< 1,A (A represents 1 ≤ multiple X<20),A (A represents 1 ≤ multiple X<20),B (B represents 20 ≤ multiple X<50),1 to 10,"CC(Oc1ccc2[nH]nc(-c3cnn(CCCS(C)(=N)=O)c3)c2c1)c1cc(Cl)cc2nccnc12 (stereo not drawn) [Example 173, (3-(4-(5-(1-(7-chloroquinoxalin-5-yl)ethoxy)-1H-indazol-3-yl)-1H-pyrazol-1-yl)propyl)(imino)(methyl)-sulfanone]",,,,
10 to 100,10 to 100,< 1,B (B represents 20 ≤ multiple X<50),B (B represents 20 ≤ multiple X<50),D (D represents 100 ≤ multiple X),1 to 10,"CC(Oc1ccc2[nH]nc(-c3cnn(C)c3)c2c1)c1cc(Cl)cn2nccc12 (stereo not drawn) [Example 174, 5-(1-(6-chloropyrazolo[1,5-a]pyridin-4-yl)ethoxy)-3-(1-methyl-1H-pyrazol-4-yl)-1H-indazole]",,,,
10 to 100,10 to 100,1 to 10,B (B represents 20 ≤ multiple X<50),A (A represents 1 ≤ multiple X<20),B (B represents 20 ≤ multiple X<50),10 to 100,"[2H]C([2H])([2H])c1ccc2ncccc2c1C(C)Oc1ccc2[nH]nc(-c3cnn(C)c3)c2c1 (stereo not drawn) [Example 187, 6-(methyl-d3) - 5-(1-((3-(1-methyl-1H-pyrazol-4-yl)-1H-indazol-5-yl)oxy)ethyl)qu inoline]",,,,
10 to 100,> 100,< 1,D (D represents 100 ≤ multiple X),B (B represents 20 ≤ multiple X<50),C (C represents 50 ≤ multiple X<100),10 to 100,"CC(Oc1ccc2[nH]nc(-c3cnn(C4CN(C(=O)CO)C4)c3)c2c1)c1cc(Cl)cc2ncccc12 (stereo not drawn) [Example 189, 1-(3-(4-(5-(1-(7-chloroquinolin-5-yl)ethoxy)-1H-indazol-3-yl)-1H-pyrazol-1-yl)azetidin-1-yl)-2-hydroxyethan-1-one]",,,,
10 to 100,10 to 100,< 1,C (C represents 50 ≤ multiple X<100),A (A represents 1 ≤ multiple X<20),C (C represents 50 ≤ multiple X<100),1 to 10,"Cc1cn2nccc2c(C(C)Oc2ccc3[nH]nc(-c4cnn(C)c4)c3c2)n1 (stereo not drawn) [Example 191, 6-methyl-4-(1-((3-(1-methyl-1H-pyrazol-4-yl)-1H-indazol-5-yl)oxy)ethyl)py razolo[1,5-a]pyrazine]",,,,

# Continued, compound first:
SMILES,"IC50 [1, 5] [nM]","IC50 [2, 6] [nM]","IC50 [3, 7] [nM]",Selectivity (X) FGFR1/FGFR3 [3],Selectivity (X) FGFR2/FGFR3 [3],Selectivity (X) FGFR4/FGFR3 [3],"IC50 [4, 8] [nM]",IC50 [1] [nM],IC50 [2] [nM],IC50 [3] [nM],IC50 [4] [nM]
"CCc1cc(C(C)Oc2ccc3[nH]nc(-c4cnn(C)c4)c3c2)c2nccnc2c1 (stereo not drawn) [Example 138, 7-ethyl-5-(1-((3-(1-methyl-1H-pyrazol-4-yl)-1H-indazol-5-yl)oxy)ethyl)quinoxaline]",10 to 100,10 to 100,< 1,C (C represents 50 ≤ multiple X<100),A (A represents 1 ≤ multiple X<20),C (C represents 50 ≤ multiple X<100),1 to 10,,,,
"Cc1cc(C(C)Oc2ccc3[nH]nc(-c4cnn(C)c4)c3c2)c2nccnc2c1 (stereo not drawn) [Example 140, 7-methyl-5-(1-((3-(1-methyl-1H-pyrazol-4-yl)-1H-indazol-5-yl)oxy)ethyl)qu inoxaline]",10 to 100,1 to 10,< 1,A (A represents 1 ≤ multiple X<20),A (A represents 1 ≤ multiple X<20),B (B represents 20 ≤ multiple X<50),1 to 10,,,,
"CC(Oc1ccc2[nH]nc(-c3cnn(C)c3)c2c1)c1cc(F)cc2nccnc12 (stereo not drawn) [Example 142, 7-fluoro-5-(1-((3-(1-methyl-1H-pyrazol-4-yl)-1H-indazol-5-yl)oxy)ethyl)qu inoxaline]",10 to 100,1 to 10,< 1,A (A represents 1 ≤ multiple X<20),A (A represents 1 ≤ multiple X<20),B (B represents 20 ≤ multiple X<50),1 to 10,,,,
"Cc1ccn2nccc2c1C(C)Oc1ccc2[nH]nc(-c3cnn(C)c3)c2c1 (stereo not drawn) [Example 155, 3-(1-methyl-1H-pyrazol-4-yl)-5-(1-(5-methylpyrazolo [1,5-a]pyridin-4-yl)ethoxy)-1H-indazole]",10 to 100,10 to 100,< 1,B (B represents 20 ≤ multiple X<50),A (A represents 1 ≤ multiple X<20),B (B represents 20 ≤ multiple X<50),1 to 10,,,,
"CC(Oc1ccc2[nH]nc(-c3cnn(C)c3)c2c1)c1c(CO)ccc2ncccc12 (stereo not drawn) [Example 156, (5-(1-((3-(1-methyl-1H-pyrazol-4-yl)-1H-indazol-5-yl)oxy)ethyl)quinolin-6-yl)m ethano]",,,,B (B represents 20 ≤ multiple X<50),A (A represents 1 ≤ multiple X<20),A (A represents 1 ≤ multiple X<20),,10 to 100,10 to 100,1 to 10,1 to 10
"CC(Oc1ccc2[nH]nc(-c3cnn(C)c3)c2c1)c1nccc2nccnc12 (stereo not drawn) [Example 157, 5-(1-((3-(1-methyl-1H-pyrazol-4-yl)-1H-indazol-5-yl)oxy)ethyl)py ridino[3,4-b]pyrazine]",10 to 100,10 to 100,1 to 10,A (A represents 1 ≤ multiple X<20),A (A represents 1 ≤ multiple X<20),A (A represents 1 ≤ multiple X<20),1 to 10,,,,
"CC(Oc1ccc2[nH]nc(-c3cnn(C4CN(C)C4)c3)c2c1)c1cccc2nccnc12 (stereo not drawn) [Example 158, 5-(1-((3-(1-(1-methylazetidin-3-yl)-1H-pyrazol-4-yl)-1H-indazol-5-yl)oxy)ethyl)q uinoxaline]",10 to 100,10 to 100,1 to 10,B (B represents 20 ≤ multiple X<50),A (A represents 1 ≤ multiple X<20),C (C represents 50 ≤ multiple X<100),1 to 10,,,,
